By IC50 is commonly meant the point on the concentration scale where inhibition reaches its midpoint.

Data set [1] can be described thus: Solubility in organic solvents. It is filed as physicochemical. The note with it: volume of methanol for 5 milligram.
For data set [2], the system named is SKOV-3TR. As to the kind of experiment: MTT cytotoxicity assay and reversal of MDR in SKOV-3TR. It counts as cell-based, human. The settings on record: for potency of isomer on reversing drug resistance: with paclitaxel, MTT 6 days post-treatment; for IC50: Homo sapiens, SKOV3TR, 144 h, without NSC23925b, MTT, 6 days, read-out: IC50 of chemotherapy drug alone. The source says:
(§1) A panel of parental cancer cell line and their daughter resistant cell lines, displaying MDR phenotype were used in this study. Human ovarian cancer cell line SKOV-3, breast cancer cell line MCF-7 and colon cancer cell line SW480, the osteosarcoma cell line U-2OS, KHOS, uterine sarcoma cell line MESSA and its doxorubicin selected drug resistant cell line MESSA/Dx5, non-small cell lung cancer cell line H-69 and its doxorubicin selected drug resistant cell line H-69AR (overexpress MRP1) were obtained from the ATCC (Rockville, Md.). Dr. Efstathios Gonos (Institute of Biological Research & Biotechnology, Athens, Greece) provided the doxorubicin resistant U-2OS R2 (referred in the text below as U-2OSDR), KHOS R2 cell lines. Dr. Erasmus Schneider (Wadsworth Center, Albany) provided the mitoxantrane resistant breast cancer MCF-7/MX (overexpress BCRP) cell line. All the cell lines were cultured in RPMI 1640 (Invitrogen, Carlsbad, Calif.) supplemented with 10% fetal bovine serum, 100-units/ml penicillin and 100 μg/ml streptomycin (Invitrogen). Cells were incubated at 37° C. in 5% CO2-95% air atmosphere and passaged when near confluent monolayers were achieved using 2% trypsin-EDTA solution. […] The fresh chemotherapy drugs were obtained from the pharmacy at the Massachusetts General Hospital and stored at −20° C.
(§2) To evaluate for reversal of Pgp-mediated MDR, SKOV-3TR, MCF-7adr and SW480TR cell lines were seeded into 96-well tissue culture plate at 2,000 cells per well with varying concentrations of chemotherapy drugs and NSC23925b for 6 days. Cell proliferation IC50 (concentration required for 50% inhibition) and MDR reversal IC50 were determined from dose-response curves carried out in triplicate in 96-well plate. Fold of reverse resistance for individual drugs were defined as the IC50 of MDR cells without NSC23925b treatment divided by the IC50 of MDR cells treated with NSC23925b. […] Drug cytotoxicity was assessed in vitro using the MTT assay as previously described. […] Response curves were fitted with use of GraphPad PRISM 4 software (GraphPad Software).
Structure and activity relationship (SAR) of the four NSC23925 isomers for reversing MDR were evaluated in human ovarian cancer MDR cell line SKOV-3TR by MTT assay (FIGS. 1A-D). Cells were treated with the paclitaxel and NSC23925 diastereomers NSC23925a (FIG. 1A), NSC23925b (FIG. 1B), NSC23925c (FIG. 1C) and NSC23925d (FIG. 1D) in RPMI1640 complete media at the indicated concentrations. The relative sensitivity of each line to paclitaxel was determined by MTT analysis 6 days post-treatment.
(In general: Tetrazolium assays rely on reduction of a dye to a coloured formazan, in cell work by metabolically active cells.)

Data set [3] relates to MCF-7adr. As to the kind of experiment: MTT cytotoxicity assay and reversal of MDR in MCF-7adr. The settings on record: Homo sapiens, NCI/ADR-RES, 144 h, without NSC23925b, MTT, 6 days, read-out: IC50 of chemotherapy drug alone. It counts as cell-based, human.
Source text: as §1, §2
(§3) MCF-7adr and SW480TR cells were treated with paclitaxel (FIGS. 2A-B), doxorubicin (FIGS. 2C-D) or mitoxantrane (FIGS. 2E-F) and NSC23925b in RPMI1640 complete media at the indicated concentrations. The relative sensitivity of each line to the indicated drugs was determined by MTT analysis 6 days post-treatment.

Data set [4] deals with SW480TR. As to the kind of experiment: MTT cytotoxicity assay and reversal of MDR in SW480TR. The settings on record: Homo sapiens, 144 h, without NSC23925b, MTT, 6 days, read-out: IC50 of chemotherapy drug alone. It counts as cell-based, human.
Source text: as §1, §2, §3

Data set [5] deals with SKOV-3TR xenograft tumors. Briefly: SKOV-3TR xenograft tumor growth in nude mice. The settings on record: alone; i.p. twice a week for two weeks; paclitaxel 20 mg/kg or NSC23925b 40 mg/kg. On the procedure:
The Crl:SHO-Prkdc^SCIDHr^hr nude female mice at approximately 3-4 weeks of age were purchased from The Charles River Laboratories (Ann Arbor, Mich.). Animal studies were carried out with protocols approved by the Massachusetts General Hospital Subcommittee on Research Animal Care (SRAC). To determine the effect of NSC23925b on paclitaxel sensitivity in xenograft model, 5×10^6 SKOV-3TR cells were injected subcutaneously with matrigel (BD Biosciences, San Jose, Calif.) on day one. Two weeks after injection, the mice were divided into four groups to start the treatments. Group one was received intraperitoneal (i.p) injection with normal saline, group two with paclitaxel (20 mg/kg), group three with NSC23925b (40 mg/kg). […] All four groups were treated twice a week for two weeks. The health of the mice and evidence of tumor growth were examined daily. Tumors were measured twice a week with a digital caliper. Tumor volume (mm^3) was calculated as (W^2×L)/2, where W is width and L is length. The curve of tumor growth was drawn according to tumor volume by using of GraphPad PRISM 4 software.
To further evaluate the effects of NSC23925b and paclitaxel combination therapy on the tumor growth of resistant cells, the growth of xenograft tumors were examined. A well-characterized ovarian cancer MDR cell line SKOV-3TR was chosen for in vivo studies. […] Tumors were measured twice a week with a digital caliper. Tumor volume (mm^3) was calculated as (W^2×L)/2, where W is width and L is length (FIG. 5A). Representative images of dissected tumor tissues from treated nude mice.

Molecules are shown by their SMILES.

As for `COc1ccc(-c2cc([C@@H](O)[C@H]3CCCCN3)c3ccccc3n2)cc1.Cl` (single isomer, unassigned) [NSC23925c, (2-(4-methoxyphenyl)quinolin-4-yl)(piperidin-2-yl)methanol hydrochloride], in data set [1], the “5 milligram solubility in methanol” value stood at 150 µL. Besides, the “potency of isomer on reversing drug resistance” value (shortened to “potency of isomer”) in data set [2] is recorded as “modest but lesser activity”.
As to `COc1ccc(-c2cc([C@H](O)[C@@H]3CCCCN3)c3ccccc3n2)cc1.Cl` (single isomer, unassigned) [NSC23925d, (2-(4-methoxyphenyl)quinolin-4-yl)(piperidin-2-yl)methanol hydrochloride], the “5 milligram solubility in methanol” value in data set [1] came to 150 µL. In addition, in data set [2], the “potency of isomer” value is “modest but lesser activity”.
On to `COc1cccc2c1C(=O)c1c(O)c3c(c(O)c1C2=O)C[C@@](O)(C(=O)CO)C[C@@H]3O[C@H]1C[C@H](N)[C@H](O)[C@H](C)O1` [Doxorubicin, reference compound], for which the IC50 in data set [3] was determined as 3800 ± 120 nM; in data set [4] it was 840 ± 160 nM; in data set [2] it was 38500 ± 2600 nM.
The matching figures for `O=C1c2c(O)ccc(O)c2C(=O)c2c(NCCNCCO)ccc(NCCNCCO)c21` [Mitoxantrane, reference compound]: 320 ± 60 nM, 270 ± 30 nM and 460 ± 60 nM.
Turning to `COc1ccc(-c2cc([C@@H](O)[C@@H]3CCCCN3)c3ccccc3n2)cc1.Cl` [NSC23925a, (2-(4-methoxyphenyl)quinolin-4-yl)(piperidin-2-yl)methanol hydrochloride], the “5 milligram solubility in methanol” value in data set [1] worked out at 650 µL. Further, the “potency of isomer” value in data set [2] was “least potency”.
As to `CC(=O)O[C@H]1C(=O)[C@@]2(C)[C@H]([C@H](OC(=O)c3ccccc3)[C@]3(O)C[C@H](OC(=O)[C@H](O)[C@@H](NC(=O)c4ccccc4)c4ccccc4)C(C)=C1C3(C)C)[C@]1(OC(C)=O)CO[C@@H]1C[C@@H]2O` [Paclitaxel, reference compound], the “effect on paclitaxel resistant tumor cell growth, single agent” value in data set [5] is “no significant effects”. Also, the 50% inhibitory concentration (IC50) in data set [3] is 620 ± 120 nM; in data set [4], 120 ± 80 nM; in data set [2] it was 570 ± 30 nM.

The record behind these values is patent US20140371165A1, “Identification of NSC23925 Isomers to Reverse Multidrug Resistance in Human Cancers” (priority 2012, published 2014).
